Where a SMILES comes first, the peptide text is derived from it. [ ]: non-standard residue; d: D form. pGlu = O=C1CC[C@@H](C(=O)O)N1
Tested on: drug-resistant Mycobacterium tuberculosis
Settings: Mycobacterium tuberculosis resistant to PAS, streptomycin and INH; peptide 10 micrograms per ml; seven days

Question: With `CSCC[C@H](NC(=O)[C@H](Cc1c[nH]c2ccccc12)NC(=O)CNC(=O)[C@H](Cc1ccc(O)cc1)NC(=O)[C@H](C)NC(=O)[C@H](CCC(=O)O)NC(=O)[C@H](CCC(=O)O)NC(=O)[C@H](CCC(=O)O)NC(=O)[C@H](CCC(=O)O)NC(=O)[C@H](CCC(=O)O)NC(=O)[C@H](CC(C)C)NC(=O)[C@H](Cc1c[nH]c2ccccc12)NC(=O)[C@@H]1CCCN1C(=O)CNC(=O)[C@H](CCC(N)=O)NC(=O)[C@H](CCCCN)NC(=O)[C@H](CCCCN)NC(=O)[C@H](CO)NC(=O)[C@@H]1CCCN1C(=O)[C@H](CC(=O)O)NC(=O)[C@H](C)NC(=O)[C@@H](NC(=O)[C@H](CC(C)C)NC(=O)[C@H](Cc1c[nH]cn1)NC(=O)[C@@H]1CCCN1C(=O)[C@@H]1CCCN1C(=O)CNC(=O)[C@H](CCC(N)=O)NC(=O)[C@@H]1CCCN1C(=O)CNC(=O)[C@H](CC(C)C)NC(=O)[C@@H]1CCC(=O)N1)C(C)C)C(=O)N[C@@H](CC(=O)O)C(=O)N[C@@H](Cc1ccccc1)C(N)=O` [Big Gastrin I] ([pGlu]LGPQGPPHLVADPSKKQGPWLEEEEEAYGWMDF-NH2) as the molecule, how does the “% inhibition” value read?
Answer: The value was 100.0%.

Source: patent US20100190711A1, “BIG GASTRIN I AS A THERAPEUTIC AGENT” (priority 2007, published 2010)
